Test results reported in patent publication US7462615B2, “Inhibitors of cysteine proteases, the pharmaceutical compositions thereof and their therapeutic applications” (Hybrigenics SA, priority 2005, dated 2008).

Legend:
USP5 = target: T1, USP5 (Homo sapiens, UniProt P45974); assay: USP5 Activity Assay; type: biochemical; settings: 400 nM Ub-AMC; 300 pM enzyme; pre-incubated 30 minutes at 25° C., 60 minutes at 37° C.; sigmoidal fit; read-out: USP 5 (Inhibition of cysteine protease activities)
T1 sequence (P45974 1-858): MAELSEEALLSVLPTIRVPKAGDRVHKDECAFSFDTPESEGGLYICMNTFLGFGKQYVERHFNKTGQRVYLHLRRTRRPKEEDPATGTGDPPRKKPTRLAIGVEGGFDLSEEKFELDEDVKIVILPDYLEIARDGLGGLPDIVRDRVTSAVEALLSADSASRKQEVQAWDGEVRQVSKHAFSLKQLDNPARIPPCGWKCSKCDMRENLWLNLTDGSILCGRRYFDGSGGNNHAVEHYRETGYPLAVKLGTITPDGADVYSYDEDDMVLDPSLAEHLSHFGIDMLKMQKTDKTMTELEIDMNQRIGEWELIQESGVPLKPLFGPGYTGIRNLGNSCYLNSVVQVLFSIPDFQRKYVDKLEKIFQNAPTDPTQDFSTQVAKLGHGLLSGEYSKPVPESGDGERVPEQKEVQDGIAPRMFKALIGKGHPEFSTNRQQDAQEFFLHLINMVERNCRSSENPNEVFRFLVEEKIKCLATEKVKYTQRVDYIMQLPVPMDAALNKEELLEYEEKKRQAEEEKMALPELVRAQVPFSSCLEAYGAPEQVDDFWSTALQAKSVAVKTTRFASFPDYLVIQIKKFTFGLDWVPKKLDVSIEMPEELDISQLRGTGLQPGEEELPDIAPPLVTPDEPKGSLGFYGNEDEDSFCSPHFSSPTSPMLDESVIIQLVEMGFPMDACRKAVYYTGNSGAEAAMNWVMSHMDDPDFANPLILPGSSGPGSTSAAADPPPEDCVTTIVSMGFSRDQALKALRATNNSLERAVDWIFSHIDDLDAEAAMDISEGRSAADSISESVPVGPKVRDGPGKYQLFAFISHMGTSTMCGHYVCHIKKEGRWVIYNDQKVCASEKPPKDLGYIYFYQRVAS
Protocol: USP5 was diluted in USP buffer (50 mM Tris HCl; 0.5 mM EDTA; 5 mM DTT; 0.01% Triton X-100; Bovine Serum Albumin 0.05 mg.ml^−1 pH 7.6). Compounds stocks (100 mM) were stored at −20° C. in DMSO.
Reactions were performed as duplicates in Black LJL 96 well plates (HE microplates; Molecular Devices; 20 μl final reaction volume). The substrate concentration for USP5 was 400 nM Ub-AMC (Boston Biochem). The concentrations of the enzyme (USP5) in specificity assays was 300 pM. The concentrations were determined in order to perform specificity assays under initial velocities at fixed substrate concentration. Compounds were pre-incubated with enzymes for 30 minutes at 25° C. Reactions were initiated by addition of substrate to the plates containing the enzymes (+/− compounds) diluted in assay buffer. Reactions were incubated for 60 minutes at 37° C. Reactions were stopped by adding acetic acid (100 mM final). Readings were performed on a Pherastar Fluorescent Reader (BMG). λ Emission 380 nm; λ Excitation=460 nm. Data (mean values +/− standard deviation) were analyzed as % of control (no compound) and plotted as percentage versus the Log of the compound concentration using GraphPad (Prism). Data were fitted to a sigmoidal model (variable slope).

Uch-L3 = target: T2, Uch-L3 (Homo sapiens, UniProt P15374); assay: UCH-L3 Activity Assay; type: biochemical; settings: 400 nM Ub-AMC; 13 pM enzyme; pre-incubated 30 minutes at 25° C., 60 minutes at 37° C.; sigmoidal fit; read-out: Uch-L3 (Inhibition of cysteine protease activities)
T2 sequence (P15374 1-230): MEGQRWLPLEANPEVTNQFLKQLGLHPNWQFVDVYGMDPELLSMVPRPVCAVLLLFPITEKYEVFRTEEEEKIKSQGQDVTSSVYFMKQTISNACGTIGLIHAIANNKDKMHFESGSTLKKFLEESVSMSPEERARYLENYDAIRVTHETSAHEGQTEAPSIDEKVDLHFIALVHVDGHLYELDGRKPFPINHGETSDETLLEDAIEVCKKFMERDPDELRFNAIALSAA
Protocol: Uch-L3 was diluted in USP buffer (50 mM Tris HCl; 0.5 mM EDTA; 5 mM DTT; 0.01% Triton X-100; Bovine Serum Albumin 0.05 mg.ml^−1 pH7.6). Compounds stocks (100 mM) were stored at −20° C. in DMSO. Compounds were tested at the following final concentrations: 100 μM; 33.3 μM; 11.1 μM: 3.7 μM; 1.23 μM; 412 nM; 137 nM; 45.7 nM; 15.2 nM; 5 nM.
Reactions were performed as duplicates in Black LJL 96 well plates (HE microplates; Molecular Devices; 20 μl final reaction volume). The substrate concentration for Uch-L3 was 400 nM Ub-AMC (Boston Biochem). The concentration of the enzyme (Uch-L3) in specificity assays was 13 pM. The concentrations were determined in order to perform specificity assays under initial velocities at fixed substrate concentration. Compounds were pre-incubated with enzymes for 30 minutes at 25° C. Reactions were initiated by addition of substrate to the plates containing the enzymes (+/−compounds) diluted in assay buffer. Reactions were incubated for 60 minutes at 37° C. Reactions were stopped by adding acetic acid (100 mM final). Readings were performed on a Pherastar Fluorescent Reader (BMG). δ Emission 380 nm; δ Excitation=460 nm. Data (mean values +/− standard deviation) were analyzed as % of control (no compound) and plotted as percentage versus the Log of the compound concentration using GraphPad (Prism). Data were fitted to a sigmoidal model (variable slope).

IC50 (USP5) | IC50 (Uch-L3) | Molecule
1540 nM | 323 nM | 6-(7)-Chloro-1-methyl-2,3,4,10,10a-pentaaza-cyclopenta[b]fluoren-9-one [Example 3/A]
7600 nM | 516 nM | Cc1nnc2nc3c(nn12)C(=O)c1ccccc1-3 [Example 1b/A, 1-Methyl-2,3,4,10,10a-pentaaza-cyclopenta[b]fluoren-9-one]
 | 143 nM | Cc1nnc2nc3c(nn12)-c1ccccc1C3=O [Example 1b/B, 3-Methyl-1,2,3a,4,10-pentaaza-cyclopenta[b]fluoren-9-one]
2800 nM | 860 nM | Nc1nnc2nc3c(nn12)C(=O)c1ccccc1-3 [Example 1c/A, 1-Amino-2,3,4,10,10a-pentaaza-cyclopenta[b]fluoren-9-one]
 | 133 nM | Nc1nnc2nc3c(nn12)-c1ccccc1C3=O [Example 1c/B, 3-Amino-1,2,3a,4,10-pentaaza-cyclopenta[b]fluoren-9-one]
3230 nM | 430 nM | CCc1nnc2nc3c(nn12)C(=O)c1ccccc1-3 [Example 1d/A, 1-Ethyl-2,3,4,10,10a-pentaaza-cyclopenta[b]fluoren-9-one]
 | 95 nM | CCc1nnc2nc3c(nn12)-c1ccccc1C3=O [Example 1d/B, 3-Ethyl-1,2,3a, 4,10-pentaaza-cyclopenta[b]fluoran-9-one]
> 100000 nM | 1270 nM | CCCc1nnc2nc3c(nn12)C(=O)c1ccccc1-3 [Example 1e/A, 1-Propyl-2,3,4,10,10a-pentaaza-cyclopenta[b]fluoren-9-one]
 | 168 nM | CCCc1nnc2nc3c(nn12)-c1ccccc1C3=O [Example 1e/B, 3-Propyl-1,2,3a, 4,10-pentaaza-cyclopenta[b]fluoren-9-one]
3900 nM | 364 nM | CCCCc1nnc2nc3c(nn12)C(=O)c1ccccc1-3 [Example 1f/A, 1-Butyl-2,3,4,10,10a-pentaaza-cyclopenta[b]fluoren-9-one]
237 nM | 91 nM | CCCCc1nnc2nc3c(nn12)-c1ccccc1C3=O [Example 1f/B, 3-Butyl-1,2,3a,4,10-pentaaza-cyclopenta[b]fluoren-9-one]
> 100000 nM | 636 nM | CC(C)Cc1nnc2nc3c(nn12)C(=O)c1ccccc1-3 [Example 1g/A, 1-Isobutyl-2,3,4,10,10a-pentaaza-cyclopenta[b]fluoren-9-one]
 | 183 nM | CC(C)Cc1nnc2nc3c(nn12)-c1ccccc1C3=O [Example 1g/B, 3-Isobutyl-1,2,3a,4,10-pentaaza-cyclopenta[b]fluoren-9-one]
2500 nM | 390 nM | O=C1c2ccccc2-c2nc3nnc(CO)n3nc21 [Example 1h/A, 1-Hydroxymethyl-2,3,4,10,10a-pentaaza-cyclopenta[b]fluoren-9-one]
 | 158 nM | O=C1c2ccccc2-c2nn3c(CO)nnc3nc21 [Example 1h/B]
> 100000 nM | 261 nM | COCc1nnc2nc3c(nn12)C(=O)c1ccccc1-3 [Example 1i/A, 1-Methoxymethyl-2,3,4,10,10a-pentaaza-cyclopenta[b]fluoren-9-one]
487 nM | 202 nM | COCc1nnc2nc3c(nn12)-c1ccccc1C3=O [Example 1i/B, 3-Methoxymethyl-1,2,3a, 4,10-pentaaza-cyclopenta[b]fluoren-9-one]
 | 1900 nM | O=C1c2ccccc2-c2nc3nnc(C4CC4)n3nc21 [Example 1j/A, 1-Cyclopropyl-2,3,4,10,10a-pentaaza-cyclopenta[b]fluoren-9-one]
 | 55 nM | O=C1c2ccccc2-c2nn3c(C4CC4)nnc3nc21 [Example 1j/B, 3-Cyclopropyl-1,2,3a,4,10-pentaaza-cyclopenta[b]fluoren-9-one]
 | 598 nM | O=C1c2ccccc2-c2nc3nnc(Cc4ccccc4)n3nc21 [Example 1k/A, 1-Benzyl-2,3,4,10,10a-pentaaza-cyclopenta[b]fluoren-9-one]
 | 164 nM | O=C1c2ccccc2-c2nn3c(Cc4ccccc4)nnc3nc21 [Example 1k/B, 3-Benzyl-1,2,3a,4,10-pentaaza-cyclopenta[b]fluoren-9-one]
260 nM | 71 nM | Cc1nnc2nc3c(nn12)-c1ccc(Cl)cc1C3=O [Example 3/B, 7-Chloro-3-methyl-1,2,3a, 4,10-pentaaza-cyclopenta[b]fluoren-9-one]
23000 nM | 3400 nM | Cn1nc2nc3c(nc2n1)-c1ccccc1C3=O [Example 4a, 2-Methyl-2H-1,2,3,4,10-pentaaza-cyclopenta[b]fluoren-9-one]
 | 7800 nM | O=C1c2ccccc2-c2nc3nn(Cc4ccccc4)nc3nc21 [Example 4b, 2-Benzyl-2H-1,2,3,4,10-pentaaza-cyclopenta[b]fluoren-9-one]
